Calls of active or inactive are those of the source. No cut-off for these calls is given here.
Legend:
[1] = Oral bioavailability in overnight-fasted male Sprague-Dawley rat assessed as fold increase at 150 mg/kg measured up to 12 hrs by HPLC analysis relative to silybin; assay type: ADME, organism-based; conditions: in vivo
Mus musculus [2] = assay: Anti-MASH activity in HFD-fed CCl4-treated male C57BL/6 mouse assessed as reversal of volume of liver at 150 mg/kg, po qd treated for 4 weeks; assay type: functional, organism-based
Hepatocyte = assay: Anti-MASH activity in palmitate/oleate-stimulated mouse primary hepatocytes assessed as reduction in FASN mRNA level by q-PCR analysis; assay type: functional, cell-based
Rattus norvegicus = assay: Hepatoprotective activity in male Sprague-Dawley rat model of CCl4-induced ALI assessed as reduction in dullness of liver margin at 100 mg/kg, IG qd pretreated with compound for 7 days followed by CCl4 administration after 2 hrs post-compound treatment measured after 16 hrs post-CCl4 injection; assay type: functional, organism-based; conditions: time 186.0 hrs
Mus musculus [3] = assay: Anti-MASH activity in HFD-fed CCl4-treated male C57BL/6 mouse assessed as restoration of liver GSH-Px level at 150 mg/kg, po qd treated for 4 weeks; assay type: functional, organism-based
[4] = Cmax in overnight-fasted male Sprague-Dawley rat at 150 mg/kg, po measured up to 12 hrs by HPLC analysis; assay type: ADME, organism-based; conditions: in vivo
[5] = Inhibition of lipid peroxidation in egg yolk (unknown origin) at 100 uM preheated with compound and FeSO4 for 15 mins followed by TCA/TBA addition measured after 15 mins by absorbance based assay relative to control; assay type: functional, tissue-based; design: scale not given: the % may be the effect or the level left; conditions: time 30.0 min
Mus musculus [6] = assay: Anti-MASH activity in HFD-fed CCl4-treated male C57BL/6 mouse assessed as reduction in collagen deposition in liver at 150 mg/kg, po qd treated for 4 weeks by Masson staining based analysis; assay type: functional, organism-based
[7] = Toxicity in male Sprague-Dawley rat model of CCl4-induced ALI assessed as body weight change at 100 mg/kg, IG qd pretreated with compound for 7 days followed by CCl4 administration after 2 hrs post-compound treatment measured after 16 hrs post-CCl4 injection; assay type: organism-based; conditions: in vivo, po, 186 h

Structure (SMILES): COc1cc([C@@H]2Oc3cc([C@H]4Oc5cc(O)cc(O)c5C(=O)[C@@H]4O)ccc3OC2CS)ccc1O (some centres undefined)
- fold change (FC) [1]: > 20
- Activity (Mus musculus [2]): Active; Activity Better Than Silybin
- Activity (Hepatocyte): Active
- Activity (Rattus norvegicus): Active
- Activity (Mus musculus [3]): Active
- Cmax [4]: 4080 ng/mL
- Activity [5]: 67%
- Activity (Mus musculus [6]): Active
- Activity [7]: Non-toxic

— ChEMBL document CHEMBL6182935, “Discovery of a Novel Silybin Derivative for the Treatment of Metabolic Dysfunction-Associated Steatohepatitis” (J Med Chem, 2025)
